In patent US9133187B2, “Serine/threonine kinase inhibitors” (ARRAY BIOPHARMA INC., priority 2011, dated 2015):

How the values were obtained:
[1] = target: human ERK-2 (Mitogen Activated Kinase 1) (Homo sapiens (Human), UniProt P28482); assay: ERK-2 Enzymatic Assay; format: biochemical; details: 5 nM ERK-2, 25 μM ATP, Omnia peptide S/T17; read-out: ERK Inhibition IC50
Outline: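 Recombinant N-terminal 6-His human ERK-2 (aa 8-360, E. coli) with fluorescent Omnia peptide S/T17 substrate, ambient temperature, read kinetically every 50 s for ~30 min (Ex 340/Em 495 nm). Linear rates converted to percent of control; IC50 from four-parameter fit.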

[2] = system: HCT116 cells; assay: Cell Proliferation/Viability Assay (Cell Titer-Blue, 72 h); format: cell-based; details: Homo sapiens, HCT-116, 3-day (72-hour) incubation
Experimental: The cytotoxic or cytostatic activity of formula I exemplary compounds was measured by: establishing a proliferating mammalian tumor cell line in a cell culture medium, adding a formula I compound, culturing the cells for a period from about 6 h to about 5 d; and measuring cell viability (Example 78). Cell-based in vitro assays were used to measure viability, i.e. proliferation (IC50), cytotoxicity (EC50).
Viable cells after a 3-day (72-hour) incubation with ERK compounds were quantified using the Cell Titer-Blue Cell Viability Assay from Promega.
Materials and Methods: HCT116 cells were plated in 96 well micro-plates at a density of 1,000 cells/well. The cells were allowed to attach to micro-plate overnight at 37° C./5% CO2. After overnight attachment, diluted compounds were then added to the cells at a final concentration of 0.5% DMSO. After 3 days (72 hours) at 37° C./5% CO2, the number of viable cells was determined using the Cell Titer-Blue Cell Viability Assay from Promega. Briefly, Cell Titer-Blue reagent were added to the cells and incubated for 1 hour. Fluorescense (560 nmexcitation/590 nmemission) was then read using a fluorescence micro-plate reader. Background from high concentration ERK-inhibited wells was subtracted. Representative date is in TABLE III (infra).

[3] = system: PMA-stimulated P90RSK(Ser380) phosphorylation in HepG2 cells; assay: Cellular P90RSK(Ser380) Phosphorylation Assay; format: cell-based; details: Homo sapiens, 1.5 h compound incubation, PMA stimulation, pP90RSK(Ser380) normalized to GAPDH, read-out: Cell Assay IC50
Outline: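 HepG2 cells were pretreated with compound (0.5% DMSO final) for 1.5 h, then stimulated with PMA 100 ng/mL for 30 min at 37° C. Fixed, permeabilized cells were immunostained for pP90RSK(Ser380) and GAPDH. The two-channel infrared fluorescence was read, and the phospho signal was normalized to GAPDH.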

Sequence of human ERK-2 (Mitogen Activated Kinase 1) (P28482 8-360): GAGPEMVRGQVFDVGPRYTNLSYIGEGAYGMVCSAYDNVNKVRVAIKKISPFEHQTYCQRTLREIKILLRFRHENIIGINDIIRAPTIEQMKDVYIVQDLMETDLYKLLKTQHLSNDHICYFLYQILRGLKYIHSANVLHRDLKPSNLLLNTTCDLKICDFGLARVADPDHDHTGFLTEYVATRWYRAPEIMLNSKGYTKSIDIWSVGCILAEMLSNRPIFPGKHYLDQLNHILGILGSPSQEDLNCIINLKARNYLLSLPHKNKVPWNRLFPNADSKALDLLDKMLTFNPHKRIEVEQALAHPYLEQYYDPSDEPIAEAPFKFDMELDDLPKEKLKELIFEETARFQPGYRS

SMILES | IC50 [1] [nM] | IC50 [2] [nM] | IC50 [3] [nM]
O=C(N[C@@H](c1ccc(Cl)c(Cl)c1)c1cnco1)N1CCc2cnc(NC3CCOCC3)nc2C1 [Compound I-1, (S)—N-((3,4-dichlorophenyl)(oxazol-5-yl)methyl)-2-(tetrahydro-2H-pyran-4-ylamino)-5,6-dihydropyrido[3,4-d]pyrimidine-7(8H)-carboxamide] | 1.1 | 301 | 4.55
CC(C)Nc1ncc2c(n1)CN(C(=O)N[C@@H](c1ccc(C(F)(F)F)c(F)c1)[C@H]1CCCN1)CC2 [Compound I-15, N—((S)-(3-fluoro-4-(trifluoromethyl)phenyl)((R)-pyrrolidin-2-yl)methyl)-2-(isopropylamino)-5,6-dihydropyrido[3,4-d]pyrimidine-7(8H)-carboxamide] | 1.1 | 625 | 37.3
CC(C)Nc1ncc2c(n1)CN(C(=O)N[C@H](CO)c1ccc(Cl)c(Cl)c1)CC2 [Compound I-16, (S)—N-(1-(3,4-dichlorophenyl)-2-hydroxyethyl)-2-(isopropylamino)-5,6-dihydropyrido[3,4-d]pyrimidine-7(8H)-carboxamide] | 1.1 | 2100 | 52.4
CC[C@@H](NC(=O)N1CCc2cnc(NC3CCOCC3)nc2C1)c1ccc(OC(F)F)cc1 [Compound I-27, (R)—N-(1-(4-(difluoromethoxy)phenyl)propyl)-2-(tetrahydro-2H-pyran-4-ylamino)-5,6-dihydropyrido[3,4-d]pyrimidine-7(8H)-carboxamide] | 1.5 | 628 | 26.9
COCC[C@@H](NC(=O)N1CCc2cnc(NC3CCOCC3)nc2C1)c1ccc(Cl)c(Cl)c1 [Compound I-28, (R)—N-(1-(3,4-dichlorophenyl)-3-methoxypropyl)-2-(tetrahydro-2H-pyran-4-ylamino)-5,6-dihydropyrido[3,4-d]pyrimidine-7(8H)-carboxamide] | 1.6 | 1900 | 32.8
C[C@@H](CO)Nc1ncc2c(n1)CN(C(=O)N[C@H](CCO)c1ccc(Cl)c(Cl)c1)CC2 [Compound I-33, N—((R)-1-(3,4-dichlorophenyl)-3-hydroxypropyl)-2-((S)-1-hydroxypropan-2-ylamino)-5,6-dihydropyrido[3,4-d]pyrimidine-7(8H)-carboxamide] | 1.1 | 1900 | 55
CC(C)Nc1ncc2c(n1)CN(C(=O)N[C@H](CCO)c1ccc(C(F)(F)F)c(F)c1)CC2 [II-72, 2-Isopropylamino-5,8-dihydro-6H-pyrido[3,4-d]pyrimidine-7-carboxylic acid [(R)-1-(3-fluoro-4-trifluoromethyl-phenyl)-3-hydroxy-propyl]-amide] | 7.2 |  | 208
COCCOC[C@@H](NC(=O)N1CCc2cnc(N[C@@H](C)CO)nc2C1)c1ccc(F)c(Cl)c1 [II-78, 2-((S)-2-Hydroxy-1-methyl-ethylamino)-5,8-dihydro-6H-pyrido[3,4-d]pyrimidine-7-carboxylic acid [(S)-1-(3-chloro-4-fluoro-phenyl)-2-(2-methoxy-ethoxy)-ethyl]-amide] | 17.7 |  | 1400
C[C@@H](NC(=O)N1CCc2cnc(N[C@H](CO)Cc3ccccc3)nc2C1)c1ccc(Cl)c(Cl)c1 [II-111, 2-((S)-1-Hydroxymethyl-2-phenyl-ethylamino)-5,8-dihydro-6H-pyrido[3,4-d]pyrimidine-7-carboxylic acid [(R)-1-(3,4-dichloro-phenyl)-ethyl]-amide] | 4.7 |  | 693
C[C@@H](NC(=O)N1CCc2cnc(N[C@H]3CCC(F)(F)C3)nc2C1)c1ccc(Cl)c(Cl)c1 [II-116, 2-((S)-3,3-Difluoro-cyclopentylamino)-5,8-dihydro-6H-pyrido[3,4-d]pyrimidine-7-carboxylic acid [(R)-1-(3,4-dichloro-phenyl)-ethyl]-amide] | 2.33 |  | 130
Cc1nccc(Nc2ncc3c(n2)CN(C(=O)N[C@H](C)c2ccc(Cl)c(Cl)c2)CC3)n1 [II-126, 2-(2-Methyl-pyrimidin-4-ylamino)-5,8-dihydro-6H-pyrido[3,4-d]pyrimidine-7-carboxylic acid [(R)-1-(3,4-dichloro-phenyl)-ethyl]-amide] | 6.9 |  | 141
C[C@H](Cc1ccc(Cl)cc1)NC(=O)N1CCc2cnc(N[C@@H](C)CO)nc2C1 [II-136, 2-(2-Hydroxy-1-methyl-ethylamino)-5,8-dihydro-6H-pyrido[3,4-d]pyrimidine-7-carboxylic acid [2-(4-chloro-phenyl)-1-methyl-ethyl]-amide] | 2.2 |  | 464
C[C@@H](CO)Nc1ncc2c(n1)CN(C(=O)NCc1nc3ccccc3o1)CC2 [II-151, 2-((S)-2-Hydroxy-1-methyl-ethylamino)-5,8-dihydro-6H-pyrido[3,4-d]pyrimidine-7-carboxylic acid (benzooxazol-2-ylmethyl)-amide] | 52.8 |  | 10000
CC(C)Nc1ncc2c(n1)CN(C(=O)NCc1cc3ccccc3[nH]1)CC2 [II-195, 2-Isopropylamino-5,8-dihydro-6H-pyrido[3,4-d]pyrimidine-7-carboxylic acid (1H-indol-2-ylmethyl)-amide] | 6.6 |  | 281
C[C@@H](CO)Nc1ncc2c(n1)CN(C(=O)NCc1cccc3cc[nH]c13)CC2 [II-200, 2-((S)-2-Hydroxy-1-methyl-ethylamino)-5,8-dihydro-6H-pyrido[3,4-d]pyrimidine-7-carboxylic acid (1H-indol-7-ylmethyl)-amide] | 411 |  | 1000
O=C(NCc1ccc2cc[nH]c2c1)N1CCc2cnc(NC3CCOCC3)nc2C1 [II-223, 2-(Tetrahydro-pyran-4-ylamino)-5,8-dihydro-6H-pyrido[3,4-d]pyrimidine-7-carboxylic acid (1H-indol-6-ylmethyl)-amide] | 5.7 |  | 186
C[C@@H](NC(=O)N1CCc2cnc(NC3CC(=O)N(C)C3)nc2C1)c1ccc(Cl)c(F)c1 (stereo partly shown) [II-267, 2-(1-Methyl-5-oxo-pyrrolidin-3-ylamino)-5,8-dihydro-6H-pyrido[3,4-d]pyrimidine-7-carboxylic acid [1-(4-chloro-3-fluoro-phenyl)-ethyl]-amide] | 20.1 |  | 28000
O=C(N1CCc2cnc(NC3CCOCC3)nc2C1)N1CCCC1c1ccccn1 (stereo not shown) [II-288, (2-Pyridin-2-yl-pyrrolidin-1-yl)-[2-(tetrahydro-pyran-4-ylamino)-5,8-dihydro-6H-pyrido[3,4-d]pyrimidin-7-yl]-methanone] | 62.7 |  | 9500
N#CCN1C[C@@H](NC(=O)N2CCc3cnc(NC4CCOCC4)nc3C2)[C@H](c2ccc(F)c(F)c2)C1 [II-341, 2-(Tetrahydro-pyran-4-ylamino)-5,8-dihydro-6H-pyrido[3,4-d]pyrimidine-7-carboxylic acid [(3S,4R)-1-cyanomethyl-4-(3,4-difluoro-phenyl)-pyrrolidin-3-yl]-amide] | 4 |  | 371
C[C@@H](NC(=O)N1CCc2cnc(NC3CC(F)(F)C3)nc2C1)c1ccc(Cl)c(Cl)c1 [II-355, 2-(3,3-Difluoro-cyclobutylamino)-5,8-dihydro-6H-pyrido[3,4-d]pyrimidine-7-carboxylic acid [(R)-1-(3,4-dichloro-phenyl)-ethyl]-amide] | 7.5 |  | 970
C[C@@H](NC(=O)N1CCc2cnc(N[C@H]3C[C@@H](O)C3)nc2C1)c1ccc(Cl)c(Cl)c1 [II-371, 2-((1S,3S)-3-Hydroxy-cyclobutylamino)-5,8-dihydro-6H-pyrido[3,4-d]pyrimidine-7-carboxylic acid [(R)-1-(3,4-dichloro-phenyl)-ethyl]amide] | 3.15 |  | 90
COCC[C@@H](CO)Nc1ncc2c(n1)CN(C(=O)N[C@H](C)c1ccc(Cl)c(Cl)c1)CC2 [II-399, 2-((S)-1-Hydroxymethyl-3-methoxy-propylamino)-5,8-dihydro-6H-pyrido[3,4-d]pyrimidine-7-carboxylic acid [(R)-1-(3,4-dichloro-phenyl)-ethyl]-amide] | 3.03 |  | 287
CCCC(NC(=O)N1CCc2cnc(N[C@@H](C)CO)nc2C1)c1ccc(OC)c(F)c1 (stereo partly shown) [II-415, 2-(2-Hydroxy-1-methyl-ethylamino)-5,8-dihydro-6H-pyrido[3,4-d]pyrimidine-7-carboxylic acid [1-(3-fluoro-4-methoxy-phenyl)-butyl]-amide] | 2.3 |  | 39.5
